Measurements from ChEMBL document CHEMBL1155406, “Synthesis and chain-dependent antifungal activity of long-chain 2H-azirine-carboxylate esters related to dysidazirine” (Bioorg Med Chem Lett, 2010).
The source made the active and inactive calls. The calls are words filed in the database; no cut-off is given here.

Legend:
Candida albicans [1] = assay: Antifungal activity against Candida albicans ATCC 14503 by broth microdilution method; type: functional, organism-based
Nakaseomyces glabratus [2] = assay: Antifungal activity against Candida glabrata by broth microdilution method; type: functional
Candida albicans [3] = assay: Antifungal activity against fluconazole-resistant Candida albicans UCD-FRI by broth microdilution method; type: functional, organism-based
Cryptococcus gattii [4] = assay: Antifungal activity against Cryptococcus neoformans var. gatti by broth microdilution method; type: functional, organism-based; settings: Cryptococcus bacillisporus
Candida albicans [5] = assay: Antifungal activity against fluconazole-resistant Candida albicans 96-489 by broth microdilution method; type: functional, organism-based
Cryptococcus neoformans [6] = assay: Antifungal activity against Cryptococcus neoformans var. grubii by broth microdilution method; type: functional, organism-based
Pichia kudriavzevii [7] = assay: Antifungal activity against fluconazole-resistant Candida krusei by broth microdilution method; type: functional, organism-based
Cryptococcus gattii [8] = assay: Antifungal activity against Cryptococcus neoformans var. gatti at 64 ug by broth microdilution method; type: functional, organism-based; settings: Cryptococcus bacillisporus
Cryptococcus neoformans [9] = assay: Antifungal activity against Cryptococcus neoformans var. grubii at 64 ug by broth microdilution method; type: functional, organism-based
Candida albicans [10] = assay: Antifungal activity against fluconazole-resistant Candida albicans 96-489 at 64 ug by broth microdilution method; type: functional, organism-based
HCT-116 = assay: Cytotoxicity against human HCT116 cells; type: cell-based
Pichia kudriavzevii [11] = assay: Antifungal activity against fluconazole-resistant Candida krusei at 64 ug by broth microdilution method; type: functional, organism-based
Nakaseomyces glabratus [12] = assay: Antifungal activity against Candida glabrata at 64 ug by broth microdilution method; type: functional, organism-based
Candida albicans [13] = assay: Antifungal activity against fluconazole-resistant Candida albicans UCD-FRI at 64 ug by broth microdilution method; type: functional, organism-based
Candida albicans [14] = assay: Antifungal activity against Candida albicans ATCC 14503 at 64 ug by broth microdilution method; type: functional, organism-based

Structure (SMILES) | Activity (Candida albicans [1]) | Activity (Nakaseomyces glabratus [2]) | Activity (Candida albicans [3]) | Activity (Cryptococcus gattii [4]) | Activity (Candida albicans [5]) | Activity (Cryptococcus neoformans [6]) | Activity (Pichia kudriavzevii [7]) | Activity (Cryptococcus gattii [8]) | Activity (Cryptococcus neoformans [9]) | Activity (Candida albicans [10]) | Activity (HCT-116) | Activity (Pichia kudriavzevii [11]) | Activity (Nakaseomyces glabratus [12]) | Activity (Candida albicans [13]) | Activity (Candida albicans [14])
CCCCCCCCCCCCCC#CC1=N[C@H]1C(=O)OC | Active | Active | Active | Active | Active | Active | Active |  |  |  |  |  |  |  | 
COC(=O)[C@H]1N=C1/C=C\CCCCCCCCC/C=C(/Cl)Br |  |  |  |  |  |  |  | inactive | inactive | inactive | Active | inactive | inactive | inactive | inactive
COC(=O)[C@H]1N=C1/C=C\CCCCCCCCCC=C(Br)Br |  |  |  |  |  |  |  | inactive | inactive | inactive | Active | inactive | inactive | inactive | inactive
COC(=O)[C@H]1N=C1/C=C/CCCCCCCCCC=C(Br)Br |  |  |  |  |  |  |  | inactive | inactive | inactive | Active | inactive | inactive | inactive | inactive
CCCCCCCCCCCCCCCC1=N[C@H]1C(=O)OC |  |  |  |  |  |  |  | inactive | inactive | inactive |  | inactive | inactive | inactive | inactive
CCCCCCCCCCCCC/C=C/[C@@H](O)[C@@H](N)CO [SPHINGOSINE] |  | 30 µg/mL |  |  |  |  |  |  |  |  |  |  |  |  | 
CCCCCCCCCC/C=C\C1=N[C@H]1C(=O)OC | Active | Active | Active | Active | Active | Active | Active |  |  |  |  |  |  |  | 
CCCCC/C=C\C1=N[C@H]1C(=O)OC |  |  | inactive |  |  |  |  |  |  |  |  |  |  |  | 
COC(=O)[C@@H]1N=C1/C=C\CCCCCCCCCCCC(C)(C)C |  |  |  |  |  |  |  | inactive | inactive | inactive |  | inactive | inactive | inactive | inactive
COC(=O)[C@H]1N=C1/C=C/CCCCCCCCC/C=C(/Cl)Br |  |  |  |  |  |  |  | inactive | inactive | inactive | Active | inactive | inactive | inactive | inactive
COC(=O)[C@H]1N=C1/C=C/CCCCCCCCCC=C(Cl)Cl |  |  |  |  |  |  |  | inactive | inactive | inactive | Active | inactive | inactive | inactive | inactive
